Results: BigSolDB 2.1

CN(C)/C=C/C(=O)c1cccnc1
solubility (mole fraction)
Conditions	in 1,4-dioxane	in DMF	in THF	in acetone	in cyclohexane	in ethyl acetate	in methanol	in n-propanol
278.15 K	–	0.0897	0.021	0.00872	–	0.0131	0.0255	0.0185
283.15 K	–	0.112	0.0216	0.00917	0.00098	0.014	0.0278	0.0207
288.15 K	0.0331	0.142	0.0225	0.00987	0.00114	0.0152	0.0304	0.0233
293.15 K	0.0357	0.175	0.0239	0.0108	0.00147	0.0163	0.034	0.0261
298.15 K	0.0388	0.209	0.0257	0.0117	0.00183	0.018	0.0379	0.0298
303.15 K	0.0427	0.249	0.0279	0.0127	0.00228	0.02	0.0427	0.0331
308.15 K	0.048	0.293	0.0304	0.0138	0.00284	0.0228	0.0476	0.0371
313.15 K	0.054	0.348	0.033	0.0149	0.0034	0.0259	0.0533	0.0408
318.15 K	0.061	0.408	0.0358	0.0164	0.00408	0.0295	0.0588	0.0465
323.15 K	0.0692	0.482	0.0391	0.0178	0.00493	0.0338	0.0648	0.0529
328.15 K	0.0779	0.588	0.0428	0.0197	0.0061	0.0382	0.0715	0.0604
